Here are results for one substance from patent US20260139254A1, “INTERFERING RNA FOR INHIBITING TOP1 GENE EXPRESSION AND USE THEREOF” (JENKEM TECHNOLOGY CO., LTD. (BEIJING), priority 2022, published 2026).

Format in all cases: cell-based, human
Series [1] deals with TOP1 mRNA. Briefly: Dose-dependence of siTOP1-1604 on TOP1 mRNA in HCT116 cells (qPCR). The settings on record: for Relative expression level of TOP1, mean value: 24 h, siNC = 100.00. Here is the method: (§1) A transfection system was prepared as follows on the day of transfection: siTOP1-1604 was diluted with an appropriate amount of Opti-MEM culture medium; Lipofectamine™ RNAiMAX (Lipo) transfection reagent was diluted with another appropriate amount of Opti-MEM culture medium and left to stand at room temperature for 5 min; and the two dilutions were uniformly mixed, left to stand at room temperature for 5 min, and then added to 24-well cell culture plates at 50 μL/well. PC-3 human prostate cancer cells were added to one of the 24-well cell culture plates at 4×10^5 cells/well, the culture medium being 450 μL of F12K containing 10% FBS; HCT116 human colon cancer cells were added to the other of the 24-well cell culture plates at 3.5×10^5 cells/well, the culture medium being 450 μL of IMDM containing 10% FBS. The cells were uniformly mixed with the siRNA. The final transfection volume was 500 μL, and the working concentrations of the siRNA were 10, 1.67, 0.27, 0.046, 0.0077, 0.0013, and 0.00021 nM. The control groups were Blank (Opti-MEM at the equal volume), Lipofectamine™ RNAiMAX (Lipo) transfection reagent, as well as 10 nM of siNC.
(§2) After 24 h of transfection, the cells were collected. The total cellular RNA was extracted according to the method in Example 2, and the level of TOP1 mRNA was detected. […] Nonlinear fitting was performed on the qPCR results using Graphpad software and IC50 of siTOP1 was calculated.
(In general: In qPCR the cycle at which signal appears reflects the starting amount.)

Series [2] has as its system TOP1 mRNA. Briefly: Inhibitory effects of modified sequences of siTOP1-1604 on TOP1 mRNA in PC-3 cells. As to conditions: PC-3, siRNA 50 nM, 48 h after transfection, Blank = 100.00. The protocol: PC-3 human prostate cancer cells were transfected with the modified siTOP1 according to the method in Example 2 at a siRNA working concentration of 50 nM. TOP1 mRNA levels were detected 48 h after the transfection. The control groups were Blank (Opti-MEM at the equal volume), Lipofectamine™ RNAiMAX (Lipo) transfection reagent, and the positive control unmodified siTOP-1604.

In series [3] the test system is TOP1 mRNA. The series can be described thus: Dose-dependence of siTOP1-1604 on TOP1 mRNA in PC-3 cells (qPCR). As to conditions: for Relative expression level of TOP1, mean value: 24 h, siNC = 100.00. The protocol:
as §1, §2

Series [4] concerns TOP1 mRNA. Briefly: Inhibitory effect of siTOP1 on TOP1 mRNA in A375 cells (Lipofectamine RNAiMAX transfection, Q-PCR). The settings on record: A375, siRNA 50 nM, 48 h after transfection. The protocol:
• 1) On the day before transfection, A375 melanoma cells were seeded into a 24-well plate at 6×10^4 to 8×10^4 cells/well, the culture medium being 500 μL of DMEM containing 10% FBS and 1% Penicillin-Streptomycin, and the plate was placed in an incubator with 5% CO2 at 37° C. for 24 h to allow the cells to adhere to the wall. Three replicate wells were made for each group. • 2) On the day of transfection, the culture medium was changed to 450 μL of DMEM culture medium without antibiotics (containing 10% FBS). • 3) The siRNAs were diluted with 25 μL of Opti-MEM culture medium; the siNC (the siNC (reference: O Sordet et al., 2008) having the target sequence of 5′-TTCTCCGAACGTGTCACGT-3′ (SEQ ID NO: 46)) at the same concentration was the negative control group; Lipofectamine™ RNAiMAX (Lipo) transfection reagent was diluted with another 25 μL of Opti-MEM culture medium and left to stand at room temperature for 5 min; and the two dilutions were uniformly mixed and left to stand at room temperature for 5 min. • 4) 50 μL of the mixed solution described above was added to each well to obtain a final transfection volume of 500 μL. and the working concentration of the siRNA was 50 nM. • 5) After the transfection, the cells were cultured for 48 h and then collected.
• 1) RNA was extracted using an Eastep™ Super total RNA extraction kit; 300 μL of RNA lysis solution and 300 μL of RNA diluent were added; and the mixture was uniformly mixed and then transferred to a 1.5 mL centrifuge tube. • 2) The mixture was centrifuged at 14000 g for 5 min, and the supernatant was carefully pipetted into a new 1.5 mL centrifuge tube. • 3) A 0.5-fold volume of absolute ethanol was added, and the mixture was uniformly mixed by allowing the tube to be repeatedly upside down 15-20 times. Subsequently, the mixture was transferred to a centrifuge column and centrifuged at 12000 g for 1 min. The filtrate was discarded. • 4) 600 μL of RNA wash buffer was added, and the mixture was centrifuged at 12000 g for 1 min. The filtrate was discarded. • 5) 50 μL of DNase I incubation buffer was added, followed by DNA digestion at room temperature for 15 min. • 6) 600 μL of RNA wash buffer was added, the mixture was centrifuged at 12000 g for 1 min, and the filtrate was discarded. This procedure was repeated once. • 7) The mixture was centrifuged at 14000 g for 2 min to remove the residual RNA wash buffer, and then the centrifuge column was placed in a collection tube. • 8) An appropriate amount of RNase-free H2O was added, and the mixture was left to stand at room temperature for 12 min and centrifuged at 14000 g for 1 min. The collected RNA was preserved at −70° C. for later use.
• 1) The mass and concentration of the RNA were detected using NanoDrop™, and an RNA template was prepared as follows: RNase-free H2O was added to 1 μg of RNA to a volume of 10 μL; the mixture was placed at 70° C. for 5 min and then placed in an ice bath for 5 min for later use. • 2) A reaction system was established according to Table 2:
• 3) The reaction system described above was uniformly mixed and centrifuged to collect the liquid at the bottom of a tube, and the mixture was subjected to the procedures of 25° C. for 5 min, 42° C. for 60 min, and 72° C. for 15 min, thereby giving the cDNA product. • 4) A Q-PCR system was prepared according to Table 3, and the level of TOP1 gene was detected:
GAPDH was used as an endogenous reference, and the sequences of the primers used for detection are as follows: […]

The term IC50 denotes the concentration at which inhibition is half-maximal. A low value points to higher potency. Regarding “siTOP1-1604: siRNA targeting TOP1; target SEQ ID NO: 9, sense strand SEQ ID NO: 24, antisense strand SEQ ID NO: 39 (sense GUGUGGACAAGAUCCGGAAUU; antisense UUCCGGAUCUUGUCCACACUU; described as unmodified parent siRNA, further chemistry not given here)”, the “Relative expression level of TOP1, mean value” is 73.06 in the series on TOP1 mRNA [1] (HCT116, 0.00021 nM); 74.72 in the series with TOP1 mRNA [1] (HCT116, 0.0013 nM); 54.01 in the series on TOP1 mRNA [1] (HCT116, 0.0077 nM); 17.23 with TOP1 mRNA [1] (HCT116, 0.046 nM); 7.57 with TOP1 mRNA [1] (HCT116, 0.27 nM); 7.91 with TOP1 mRNA [1] (HCT116, 1.67 nM). The “Relative expression level of TOP1, mean value” in the series on TOP1 mRNA [1] (HCT116, 10 nM) stood at 3.98; in the series with TOP1 mRNA [3] (PC-3, 0.00021 nM) it was 125.48; in the series with TOP1 mRNA [3] (PC-3, 0.0013 nM), 96.21; with TOP1 mRNA [3] (PC-3, 0.0077 nM) it was 122.71; with TOP1 mRNA [3] (PC-3, 0.046 nM), 47.64; in the series with TOP1 mRNA [3] (PC-3, 0.27 nM), 24.94. The “Relative expression level of TOP1, mean value” is given as 21.05 in the series with TOP1 mRNA [3] (PC-3, 1.67 nM) and 19.66 in the series with TOP1 mRNA [3] (PC-3, 10 nM). For the same substance, the half-maximal inhibitory concentration (IC50) in the series with TOP1 mRNA [1] (HCT116, 24 h, relative to siNC, nonlinear fit of qPCR results) is 0.006 nM; in the series with TOP1 mRNA [3] (PC-3, 24 h, relative to siNC, nonlinear fit of qPCR results), 0.075 nM. Also, the “Relative expression level, mean value” in the series with TOP1 mRNA [2] stood at 4.03. In addition, the “Inhibition of TOP1 expression” value with TOP1 mRNA [4] amounted to 94.0%. Further, in the series on TOP1 mRNA [4] (Blank = 100.00, GAPDH reference), the “Relative expression level of gene, mean value” is 5.97.
